According to US20240327359A1, “3-ISOXAZOLIDINONE COMPOUND, PREPARATION METHOD, HERBICIDAL COMPOSITION AND APPLICATION THEREOF” (QINGDAO KINGAGROOT CHEMICAL COMPOUND CO., LTD., priority 2021, published 2024):

How the values were obtained:
Assay type in all cases: in vivo
[1] = system: Lolium perenne; experiment: Weeding effect in pre-emergence stage; conditions: 2 weeks
Text: (§1) The activity level criteria for plant damage (i.e., growth control rate) are as follows:
(§2) The above growth control rates are fresh weight control rates.
(§3) Monocotyledonous and dicotyledonous weed seeds (Descurainia sophia, Capsella bursa-pastoris, Abutilon theophrasti, Galium aparine, Stellaria media, Lithospermum arvense, Rorippa indica, Alopecurus aequalis, Alopecurus japonicus, Eleusine indica, Beckmannia syzigachne, Sclerochloa dura, Phleum paniculatum, Veronica didyma, Bromus japonicus, Aegilops tauschii, Phalaris arundinacea, Amaranthus retroflexus, Chenopodiaceae, Commelina communis, Sonchus arvensis, Convolvulus arvensis, Cirsium setosum, Solanumnigrum, Acalypha australis, Digitaria sanguinalis, Echinochloa crusgalli, Setaria viridis, Setaria glauca, Leptochloa chinensis, Monochoria vaginalis, Sagittaria trifolia, Scirpus juncoides, Cyperus rotundus, Cyperus iria, Cyperus difformis, Fimbristylis, Portulaca oleracea, Xanthium sibiricum, Pharbitis nil, Conyza Canadensis, etc.) and major crop seeds (wheat, corn, rice, soybean, cotton, oilseed rape, millet, sorghum, potato, sesame, ricinus, etc.) were placed in plastic pots filled with soil, then covered with 0.5-2 cm of soil, allowed to grow in a good greenhouse environment. The test plants were treated on the day of sowing. The tested compounds of the present invention were respectively dissolved in acetone, then added with Tween 80, diluted with a certain amount of water to obtain a solution of a certain concentration, and sprayed by a spray tower onto the plants. After the application, the plants were cultured for 2 weeks in the greenhouse, and then the experimental results of the weeding were recorded. The doses of the used compounds were 3, 6, 12, 24, 48 g ai./mu (1 mu=1/15 ha), and the averages were obtained from three replicates.

[2] = system: Echinochloa crusgalli; experiment: Weeding effect in pre-emergence stage; conditions: 2 weeks
Text: as §1, §2, §3

[3] = system: Descurainia sophia; experiment: Weeding effect in pre-emergence stage; conditions: 2 weeks
Text: as §1, §2, §3

[4] = system: Leptochloa chinensis; experiment: Weeding effect in pre-emergence stage; conditions: 2 weeks
Text: as §1, §2, §3

[5] = system: Veronica didyma; experiment: Weeding effect in pre-emergence stage; conditions: 2 weeks
Text: as §1, §2, §3

[6] = system: Alopecurus japonicus; experiment: Weeding effect in post-emergence stage; conditions: 720 g a.i./ha, 3 weeks after application
Text: as §1, §2
(§4) Monocotyledonous and dicotyledonous weed seeds (Descurainia sophia, Capsella bursa-pastoris, Abutilon theophrasti, Galium aparine, Stellaria media, Lithospermum arvense, Rorippa indica, Alopecurus aequalis, Alopecurus japonicus, Eleusine indica, Beckmannia syzigachne, Sclerochloa dura, Phleum paniculatum, Veronica didyma, Bromus japonicus, Aegilops tauschii, Phalaris arundinacea, Amaranthus retroflexus, Chenopodiaceae, Commelina communis, Sonchus arvensis, Convolvulus arvensis, Cirsium setosum, Solanumnigrum, Acalypha australis, Digitaria sanguinalis, Echinochloa crusgalli, Setaria viridis, Setaria glauca, Leptochloa chinensis, Monochoria vaginalis, Sagittaria trifolia, Scirpus juncoides, Cyperus rotundus, Cyperus iria, Cyperus difformis, Fimbristylis, Portulaca oleracea, Xanthium sibiricum, Pharbitis nil, Conyza Canadensis, etc.) and major crop seeds (wheat, corn, rice, soybean, cotton, oilseed rape, millet, sorghum, potato, sesame, ricinus, etc.) were placed in plastic pots filled with soil, then covered with 0.5-2 cm of soil, allowed to grow in a good greenhouse environment. Two weeks after sowing, the test plants were treated in the 2-3 leaf stage. The tested compounds of the present invention were respectively dissolved in acetone, then added with Tween 80 and 1.5 liter/ha of emulsifiable concentrate of methyl oleate as synergist, diluted with a certain amount of water to obtain a solution of a certain concentration, and sprayed by a spray tower onto the plants. After the application, the plants were cultured for 3 weeks in the greenhouse, and then the experimental results of the weeding were recorded. The doses of the used compounds were 45, 90, 180, 360, 720 g a.i./ha, and the averages were obtained from three replicates.

[7] = system: Abutilon theophrasti; experiment: Weeding effect in post-emergence stage; conditions: 720 g a.i./ha, 3 weeks after application
Text: as §1, §2, §4

[8] = system: Leptochloa chinensis; experiment: Weeding effect in post-emergence stage; conditions: 720 g a.i./ha, 3 weeks after application
Text: as §1, §2, §4

[9] = system: Digitaria sanguinalis; experiment: Weeding effect in post-emergence stage; conditions: 720 g a.i./ha, 3 weeks after application
Text: as §1, §2, §4

[10] = system: weeds; experiment: Activity test of the compositions, soil sealing treatment; conditions: Echinochloa crus-galli, 504 h, Echinochloa crusgalli, soil treatment (S), 21 days, read-out: Control effect (%) of B applied alone (B)
Procedure: (§5) The desired active ingredient B was purchased from a reagent company or synthesized by a known method. The technical materials were all dissolved in acetone and diluted with an aqueous solution containing 0.10% emulsifier Tween-80 which were to be used immediately after dilution.
Weeds are cultivated in a controllable sunlight greenhouse at 20 to 30° C., in natural light, and with relative humidity of 57% to 72%. […] The test soil was filled quantitatively to ¾ of the pots and then watered from the bottom of the pots to completely wet the soil to saturation. The test weed seeds were accelerated to just germinate, and then evenly and quantitatively sowed on the surface, then covered with 0.5-1 cm soil according to the seed size, and ready for use 72 hours after sowing.
(§6) Each treatment was repeated 4 times. Four pots with 20 weed seeds per pot were treated each time.
(§7) The well-sowed test materials were evenly placed on a platform with an area of 0.5 m^2, and solution of agents was sprayed on the soil by the 3WP-2000-type walking spray tower at a dosage of 450 kg/ha and at a spray pressure of 0.3 MPa. After all the solution was sprayed, the valve was closed. After 30 seconds, the door of the spray tower was opened, and the nutritional bowl was taken out. Then the valve was opened, and the spray tube was cleaned by spraying 50 ml of water.
(§8) A method for investigating absolute numbers was employed. Whole seedlings of survival weeds were cut off with a blade along the soil surface, and the fresh weight of the weeds was weighed with an analytical balance. For dead weeds, the fresh weight thereof was zero.
(§9) The investigation was performed 21 days after the treatment for only once in total.

[11] = system: Cirsium setosum; experiment: Activity test of the compositions, post-emergence treatment by foliage spray; conditions: foliage (F)
Procedure: as §5
Weeds were cultivated by a pot culture method. […] Weed seeds with plump and uniform grains were selected, soaked in lukewarm water at 25° C. for 6 hours, and germinated in a 28° C. biochemical incubator (in darkness). The weed seeds that had just germinated were evenly placed on the surface of the soil and then covered with 0.5-1 cm soil according to the sizes of seeds.
The culture was carried out in a controllable sunlight greenhouse at 20 to 30° C., in natural light, and with relative humidity of 57% to 72%.
as §6
The agents were used for only once in total in the experiment. In the stage of 1.5-2 leaves, the weeds were thinned out to maintain 10 weeds per pot. Ten weeds were kept in each treatment, then continued to be cultured until Echinochloa crus-galli var. zelayensis reached the stage of 2-3 leaves, Cirsium setosum reached the stage of 5-6 leaves, Galium aparine reached the stage of 3-4 whorl leaves, Amaranthus retroflexus reached the stage of 3-5 leaves, Echinochloa crusgalli, Lolium multiflorum and Digitaria sanguinalis reached the stage of 3 leaves with one leaf not fully expanding for further treatment.
as §7, with “well-cultured” for “well-sowed”, “stems and leaves thereof” for “soil”, “water. After the treatment, the weeds were routinely cultured in a greenhouse.” for “water.”
as §8, §9

CC1(C)CON(Cc2ccccc2Cl)C1=O [Control compound B, clomazone]
weeding effect in pre-emergence stage, activity level (growth control rate) ([1]; 6 g a.i./mu): 1 (Level 1: growth control rate is greater than 0% and less than 15%)
weeding effect in pre-emergence stage, activity level (growth control rate) ([1]; 24 g a.i./mu): 9
weeding effect in pre-emergence stage, activity level (growth control rate) ([2]; 3 g a.i./mu): 8 (Level 8: growth control rate is greater than or equal to 80% and less than 100%)
weeding effect in pre-emergence stage, activity level (growth control rate) ([2]; 6 g a.i./mu): 9
weeding effect in pre-emergence stage, activity level (growth control rate) ([2]; 12 g a.i./mu): 9
weeding effect in pre-emergence stage, activity level (growth control rate) ([2]; 24 g a.i./mu): 9
weeding effect in pre-emergence stage, activity level (growth control rate) ([3]; 3 g a.i./mu): 2 (Level 2: growth control rate is greater than or equal to 15% and less than 30%)
weeding effect in pre-emergence stage, activity level (growth control rate) ([3]; 6 g a.i./mu): 3 (Level 3: growth control rate is greater than or equal to 30% and less than 40%)
weeding effect in pre-emergence stage, activity level (growth control rate) ([3]; 12 g a.i./mu): 7 (Level 7: growth control rate is greater than or equal to 70% and less than 80%)
weeding effect in pre-emergence stage, activity level (growth control rate) ([3]; 24 g a.i./mu): 7 (Level 7: growth control rate is greater than or equal to 70% and less than 80%)
weeding effect in pre-emergence stage, activity level (growth control rate) ([4]; 3 g a.i./mu): 0
weeding effect in pre-emergence stage, activity level (growth control rate) ([4]; 6 g a.i./mu): 4 (Level 4: growth control rate is greater than or equal to 40% and less than 50%)
weeding effect in pre-emergence stage, activity level (growth control rate) ([4]; 12 g a.i./mu): 9
weeding effect in pre-emergence stage, activity level (growth control rate) ([4]; 24 g a.i./mu): 9
weeding effect in pre-emergence stage, activity level (growth control rate) ([5]; 6 g a.i./mu): 8 (Level 8: growth control rate is greater than or equal to 80% and less than 100%)
weeding effect in pre-emergence stage, activity level (growth control rate) ([5]; 12 g a.i./mu): 9
weeding effect in pre-emergence stage, activity level (growth control rate) ([5]; 24 g a.i./mu): 9
weeding effect in post-emergence stage, activity level (growth control rate) [6]: 4 (Level 4: growth control rate is greater than or equal to 60% and less than 85%)
weeding effect in post-emergence stage, activity level (growth control rate) [7]: 3 (Level 3: growth control rate is greater than or equal to 40% and less than 60%)
weeding effect in post-emergence stage, activity level (growth control rate) [8]: 4 (Level 4: growth control rate is greater than or equal to 60% and less than 85%)
weeding effect in post-emergence stage, activity level (growth control rate) [9]: 3 (Level 3: growth control rate is greater than or equal to 40% and less than 60%)
pest or weed control at 30 g/ha ([10]; B at 2 g a.i./mu): 33.2%
pest or weed control at 60 g/ha ([10]; B at 4 g a.i./mu): 46.8%

CC(C)N1C(=O)c2ccccc2NS1(=O)=O [bentazon]
Control effect (%) of B applied alone (B) ([11]; B 8 g a.i./mu): 12.4%
Control effect (%) of B applied alone (B) ([11]; B 16 g a.i./mu): 25.8%
